We go through four molecules from patent US20190365728A1, “PHARMACEUTICAL COMPOSITION COMPRISING BETAHISTINE” (Otolanum AG, priority 2017, published 2019).

Data set [1] can be described thus: Minor metabolites HEP and AEP in human plasma (LC-MS/MS). The data set is classed as in vivo. The method, then:
For the first time it was also possible to determine the two minor betahistine metabolites aminoethylpyridine (AEP) and hydroxyethylpyridine (HEP) in human plasma.
HEP and AEP concentrations were determined using liquid chromatographic tandem mass spectrometry (SCIEX API 4000) with a validated method. HEP-d4 and AEP-d4 dihydrochloride served as internal standards. […] The limit of quantitation was 1 ng/mL in case of HEP and 10 pg/mL in case of AEP.

A short description of data set [2]: Single-dose and 14-day repeat-dose toxicology/toxicokinetic study of intranasal betahistine in beagle dogs. The data set is classed as in vivo. As for the experimental part:
Sample analysis was conducted using reversed phase chromatography.

The nature of data set [3]: Pharmacokinetic profile in beagle dogs after single oral, intranasal and intravenous betahistine. Format: in vivo. As for the experimental part:
In this study, the pharmacokinetic profile of betahistine was evaluated after a single dose administration of betahistine in male and female beagle dogs (age 5-7 months; weight of 5-11 kg, within a range of 3 kg for each sex) for three routes of administration: oral, intranasal, and intravenous.
On Day 1 of the study, betahistine (BH) was delivered orally at a dose of 12 mg/kg, 24 mg/kg, or 48 mg/kg. Each treatment group comprised 8 animals (4 males and 4 females). For pharmacokinetic assessment, plasma samples were collected prior to dosing, and then at 5, 10, 20 and 30 min, 1, 2, 3, 6, 24 hours after dosing.
On Day 8 of the study, the animals that received oral BH at a dose of 12 mg/kg were administered the test betahistine composition intranasally at a dose of 40 mg betahistine dihydrochloride; the animals that received oral BH at a dose of 24 mg/kg were administered the test betahistine composition intranasally at a dose of 80 mg betahistine dihydrochloride; and the animals that received oral BH at a dose of 48 mg/kg were administered the test betahistine composition intranasally at a dose of 120 mg betahistine dihydrochloride. The test betahistine composition was delivered intranasally in a single dose via an Aptar nasal spray pump device at a total dose level of 40, 80 and 120 mg of betahistine dihydrochloride. Plasma samples were collected prior to dosing, and then at 5, 10, 20 and 30 min, 1, 2, 3, 6, 24 hours after dosing.
On Day 15 of the study, the animals that received oral BH at a dose of 12 mg/kg and the test betahistine composition intranasally at a dose of 40 mg betahistine dihydrochloride were administered a bolus intravenous injection of betahistine at a dose of 0.44 mg/kg. Plasma samples were collected prior to dosing, and then at 5, 10, 20 and 30 min, 1, 2, 3, 6, 24 hours after dosing.
Betahistine 13CD3 dihydrochloride and 2-pyridylacetic acid-D4 hydrochloride were used as respective internal standards. The calibration range for betahistine was 0.05-250 ng/mL and for 2-PAA 2.00-3000 ng/mL using a plasma sample volume of 0.50 mL.
For determination of betahistine, the method involved liquid-liquid extraction, for 2-PAA, the method involved protein precipitation. Plasma samples were prepared for betahistine by extraction under basic conditions with an organic solvent, then the organic phase was dried, reconstituted and transferred for LC/MS-MS analysis. […] Sample analysis was performed using reversed phase chromatography.

For data set [4] the following is noted: metabolite of betahistine, background statement; cited from earlier work.
The nature of data set [5]: Relative bioavailability of intranasal vs oral betahistine in humans (Example 3 vs Barak et al.). Format: in vivo. Conditions: human. The method, then: For the calculation of the relative bioavailability of intranasal betahistine compared to peroral betahistine, the area under the concentration-time curve (AUC) determined in Example 3 was compared to the AUC determined in a study with oral betahistine in healthy volunteers described in Barak et al. (Journal of Psychopharmacology, 2016, Vol. 30(3) 237-241). In brief, in this study, forty-eight healthy women were recruited and randomized to receive per os (i.e. orally) either betahistine 144 mg/day (48 mg t.i.d.) or matching placebo for 4 weeks. Their mean weight was 60.2 kg in the active-treated group (n=24) and 59.8 kg in the placebo group (n=24). Study medication (betahistine or matching placebo) was administered at least 30 minutes prior to eating. On Day 8, blood samples of 6 mL each were collected at 8 am, and 30, 60, 150 and 300 minutes thereafter. Plasma concentrations of betahistine and its metabolite 2-PAA were determined by high-performance liquid chromatography.

A further data set in a line: clinical. Conditions: human. The method, then: The safety and pharmacokinetic profile of intranasal betahistine with single and multiple dosing was evaluated in a single-site randomized, placebo-controlled Phase I dose-escalation trial. 72 healthy male and female subjects aged between 18 and 60 years and with a BMI of 18.5 to 30 kg/m^2 were enrolled. In one group, the subjects received single dose intranasal betahistine in four dose cohorts of 10, 20, 40 or 60 mg or multiple dose intranasal betahistine (three times daily for 3 days) in four dose cohorts of 5, 10, 20 or 40 mg (double blind). Subjects received first the single dose and then, following a wash-out period, the multiple doses with the exception of the 5 mg and 60 mg doses which were tested only under one dose regimen. For reference purposes, another group of subjects received single dose oral betahistine in four dose cohorts at 48, […], 192 or 384 mg (single blind).
With each actuation of the nasal spray, 100 μL were delivered (1 actuation at 50 mg/mL for 5 mg and at 200 mg/mL for 20 mg, respectively; 2 actuations at 50 mg/mL for 10 mg and at 200 mg/mL for 40 mg, respectively, into each nostril; 3 actuations at 200 mg/mL for 60 mg with 2 into one nostril and 1 into the other) while the subject was in an upright position.
Serial blood samples were collected at various time points, starting at pre-dose and over a maximum of 72 hours following dosing.
All plasma samples were stored at −95 to −65° C. until all samples had been collected and sent in two separate shipments for analysis.

Data set [6] is described as follows: Single ascending-dose clinical trial of intranasal betahistine in healthy volunteers: safety and plasma pharmacokinetics. Conditions: human; for tmax: median (range).
Protocol: The safety and pharmacokinetic profile of intranasal betahistine was further evaluated in a double-blind, randomized, placebo-controlled, single ascending-dose clinical trial involving a total of 32 healthy male and female volunteers. The main inclusion criteria were that subjects had to be aged 18-45 years and show a body mass index within the range of 18-30 kg/m^2. Subjects were required to fast for 8 hours prior to study drug administration and for 2 hours post-dose.
The betahistine was supplied as a 50 and 200 mg/mL solution in a HDPE bottle and spray pump pack (Aptar Classic Line) that delivers an accurate 100 μL per actuation. The study drug was delivered into the right nostril of subjects while they were in a supine position. For the 5 and 20 mg doses, one application of 50 and 200 mg/mL, respectively, was needed, whereas for the 10 and 40 mg doses, two applications of 50 and 200 mg/mL were required.
Serial blood samples were collected through 24 hours, following dosing on Day 1, at Day 4 and Day 7 to determine concentrations of betahistine and its main metabolite, 2-PAA in plasma. Plasma samples were assayed for BH content using validated procedures and methods. Blood samples (6 mL) were collected into tubes containing K2EDTA and were centrifuged at approximately 2000 g for 10 minutes at +4° C. and the resultant plasma transferred into 2 clean, labelled 2 mL cryovials. All plasma samples were stored at −70° C. or below until all samples had been collected and sent as a single batch for analysis. Aliquot 1 and 2 were sent as separate shipments. Concentrations were determined using liquid chromatographic tandem mass spectrometry (LC-MS/MS; SCIEX API 5000 for betahistine and SCIEX API 4000 for 2-PAA) with a validated method. Betahistine-^13CD3 dihydrochloride and 2-PAA-D4 hydrochloride served as internal standards. The standard calibration range—using a plasma sample volume of 0.2 and 0.1 mL, respectively—for betahistine was 10 to 800 pg/mL and for 2-PAA it was 2 to 2000 ng/mL. The limit of quantitation was 10 pg/mL for betahistine and 2.0 ng/mL for 2-PAA.
In case of betahistine, the method involved a liquid-liquid extraction; in case of 2-PAA it involved protein precipitation. For betahistine, plasma samples were extracted under basic conditions with an organic solvent; the organic phase was dried and reconstituted in reconstitution solvent. Approximately 0.120 mL of the aqueous layer was transferred into polypropylene vials for LC-MS/MS analysis. For 2-PAA plasma samples were precipitated with a mixture of organic solvents, supernatant was diluted and 0.120 mL was transferred into polypropylene vials for LC-MS/MS analysis. Sample analysis was conducted using reversed phase chromatography.
For each subject who completed the study, plasma concentration-time data of betahistine and 2-PAA were used for the calculation of the following pharmacokinetic parameters:
Dose normalized parameters Cmax/Dose and AUC/Dose were also calculated.

Marks after values point to notes of the source that are not given here.

`NCCc1ccccn1` [AEP, aminoethylpyridine]: in data set [1] (AEP, human, intranasal betahistine 60 mg), the plasma concentration result was “barely detectable”.
As to `OCCc1ccccn1` [HEP, hydroxyethylpyridine], the median tmax in data set [1] (in vivo) amounted to 15 min.
As for `O=C(O)Cc1ccccn1` [Variant 2-PAA, 2-pyridylacetic acid], the last measurable values in data set [2] (both, beagle, dog, in vivo) is listed as 24 hours post-dose. The “Tmax, median (min-max)” value in data set [3] (male, beagle, dog, in vivo) is reported as 0.13 (0.08-0.33) hr. Also, in data set [4], the pharmacological activity entry is “no pharmacological activity”.
By Cmax is commonly meant the highest concentration seen after dosing. For the molecule `CNCCc1ccccn1` [betahistine], the tolerability result in data set [2] (beagle dogs, intranasal, single dose 4-80 mg and 14-day repeat dose 12-240 mg/day) is recorded as “well tolerated”. Also, in data set [2] (both, beagle, dog, in vivo), the “body weights, clinical pathology and gross necropsy findings” value is “unremarkable”; the microscopic findings result is reported as “No adverse treatment-related microscopic findings”. Besides, the “decline of plasma concentration” value in data set [2] (both, beagle, dog, in vivo, 1 h) is on record as “more than 90%”. Also, in data set [3] (both, beagle, dog, in vivo), the salivation result is on record as “noted in most animals” and the “sneezing, animals affected” value was 2/8. Further, the tolerability result in data set [3] (dogs, single intranasal 40-120 mg) was “well tolerated”. Further, the Cmax in data set [3] (female, beagle, dog, in vivo, iv, 0.44 mg/kg) came out at 4.37 ± 8.84 ng/mL. Further, in data set [5] (Barak et al. oral vs Example 3 intranasal), the “relative bioavailability of oral vs. intranasal administration” value is reported as “approximately 2.4%”. The “bioavailability intranasal relative to oral” value in data set [5] (Example 3 single intranasal 5-40 mg vs Barak et al. oral 48 mg) is listed as 20-40 times. For the same molecule, the “Rel. Bioavail. intranasal relative to oral” value in data set [5] (intranasal 40 mg vs oral 48 mg (Barak et al.)) is 41.1. For the same molecule, in the data set “clinical” (both, in vivo), the apparent half-life entry is “less than 1 h”; the “exposure AUC0-6 unadjusted for dose, intranasal vs oral 48 mg” value is 5-29 fold; the “nasal pain, share of administrations” value came out at 4%; the “post-nasal drip, share of administrations” value was found to be 5%. Further, in “clinical” (both, in vivo), the “runny nose, share of administrations” value turned out to be 6% and the “time of maximum concentrations” value was in the range of 5 to 20 min. In addition, the accumulation over time entry in “clinical” (both, in vivo, 3 days) is on record as “No accumulation”. In addition, the “time of maximum concentrations” value in the data set “clinical” (both, in vivo, po) lay in the range of 15 to 30 min. In “clinical” (both, in vivo, tmax, Median (range)), this molecule came in with a tmax of 15 min. Further, in “clinical” (intranasal multiple dosing three times daily over three days), the “dose up to which safety and tolerability could be shown” value was “up to 40 mg”. In addition, the “dose up to which safety and tolerability could be shown” value in the data set “clinical” (intranasal single doses) is recorded as “up to 60 mg”. The “peak concentration in plasma” value in data set [6] (betahistine, single intranasal 20 mg) was determined as 4.1 ng/mL. The tmax in data set [6] (single intranasal 5 mg) was 0.208 (0.08-0.33) hr. Also, the t1/2 in data set [6] (single intranasal 10 mg, mean, n=3) was 0.883 ^a hr. Further, in data set [6] (single intranasal 10 mg), the tmax is 0.167 (0.08-0.17) hr. Besides, in data set [6] (single intranasal 40 mg), the tmax is 0.125 (0.08-0.27) hr.
